Data on seven compounds can be found in PubChem BioAssay (NCI).

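Cultured in 96-well plates, cells were exposed to test compound for 48 hours across five concentrations. The concentration for 50% growth inhibition is given as GI50. At the TGI there is no net growth.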

The test system of the first assay is CAKI-1 renal. Briefly: NCI-60 cell line screen, 48 h.
`O=C(N/C(=C\c1ccc2c(c1)OCO2)c1nc2ccccc2[nH]1)c1ccccc1` gave a TGI greater than 100 µM.
Take `COc1ccc2sc3c(NCCCN(C)C)nc4ccccc4c3c(=O)c2c1`: the GI50 is 1.6 µM and the TGI stood at 2.95 µM.
Turning to `CSc1ccc(C2OC(=O)c3ccccc32)c2ccccc12` (stereo not given), the TGI is greater than 100 µM.
For `C=CCOc1cccc(/C=C2\SC(=Nc3ccc(O)cc3)NC2=O)c1`, the GI50 is 0.466 µM and the TGI was found to be 6.43 µM.
The corresponding values for `COc1ccc(-c2c3c(N)nc(-c4ccncc4)nc3nc3c2c(C)nn3-c2ccccc2)cc1` are greater than 100 µM and greater than 100 µM.
On to `C#CCOCn1cnc2c(Cl)ncnc21`, for which the TGI was greater than 100 µM.
As for `COc1cccc(-n2ncc3c(N/N=C/c4ccc(C(=O)NCCN(C)C)cc4)ncnc32)c1`, the GI50 was 1.27 µM and the TGI was 5.48 µM.

The next assay relates to HOP-92 NSCLC. Briefly: NCI-60 cell line screen, 48 h.
As to `O=C(N/C(=C\c1ccc2c(c1)OCO2)c1nc2ccccc2[nH]1)c1ccccc1`, the TGI worked out at 58.7 µM.
For the compound `COc1ccc2sc3c(NCCCN(C)C)nc4ccccc4c3c(=O)c2c1`, the GI50 was 1.03 µM and the TGI is 2.47 µM.
The compound `CSc1ccc(C2OC(=O)c3ccccc32)c2ccccc12` (stereo not given) returned a TGI greater than 100 µM.
With `C=CCOc1cccc(/C=C2\SC(=Nc3ccc(O)cc3)NC2=O)c1`, the GI50 is 0.863 µM and the TGI was 6.54 µM.
On to `COc1ccc(-c2c3c(N)nc(-c4ccncc4)nc3nc3c2c(C)nn3-c2ccccc2)cc1`, for which the GI50 is 36.2 µM and the TGI was greater than 100 µM.
For the compound `C#CCOCn1cnc2c(Cl)ncnc21`, the TGI was greater than 100 µM.
On to `COc1cccc(-n2ncc3c(N/N=C/c4ccc(C(=O)NCCN(C)C)cc4)ncnc32)c1`, for which the GI50 is greater than 25 µM and the TGI was greater than 25 µM.

The test system of the next assay is KM12 colon. Briefly: NCI-60 cell line screen, 48 h.
Compound `O=C(N/C(=C\c1ccc2c(c1)OCO2)c1nc2ccccc2[nH]1)c1ccccc1` showed a TGI greater than 100 µM.
Turning to `COc1ccc2sc3c(NCCCN(C)C)nc4ccccc4c3c(=O)c2c1`, the GI50 was 1.68 µM and the TGI came to 3.18 µM.
`CSc1ccc(C2OC(=O)c3ccccc32)c2ccccc12` (stereo not given) yielded a TGI greater than 100 µM.
As to `C=CCOc1cccc(/C=C2\SC(=Nc3ccc(O)cc3)NC2=O)c1`, the GI50 was 0.433 µM and the TGI turned out to be 8.86 µM.
As for `COc1ccc(-c2c3c(N)nc(-c4ccncc4)nc3nc3c2c(C)nn3-c2ccccc2)cc1`, the GI50 was 8.55 µM and the TGI is greater than 100 µM.
`C#CCOCn1cnc2c(Cl)ncnc21` registered a TGI greater than 100 µM.
As for `COc1cccc(-n2ncc3c(N/N=C/c4ccc(C(=O)NCCN(C)C)cc4)ncnc32)c1`, the GI50 was 1.36 µM and the TGI was found to be 4.67 µM.

The subject of another assay is K-562 leukemia. Briefly: NCI-60 cell line screen, 48 h.
As for `O=C(N/C(=C\c1ccc2c(c1)OCO2)c1nc2ccccc2[nH]1)c1ccccc1`, the TGI was greater than 79.6 µM.
With `COc1ccc2sc3c(NCCCN(C)C)nc4ccccc4c3c(=O)c2c1`, the GI50 is 1.8 µM and the TGI was determined as 4.71 µM.
The compound `CSc1ccc(C2OC(=O)c3ccccc32)c2ccccc12` (stereo not given) had a TGI greater than 100 µM.
As for `C=CCOc1cccc(/C=C2\SC(=Nc3ccc(O)cc3)NC2=O)c1`, the GI50 was 0.243 µM and the TGI was greater than 100 µM.
For the compound `COc1ccc(-c2c3c(N)nc(-c4ccncc4)nc3nc3c2c(C)nn3-c2ccccc2)cc1`, the GI50 is 3.13 µM and the TGI is greater than 100 µM.
Regarding `C#CCOCn1cnc2c(Cl)ncnc21`, the TGI was greater than 100 µM.
For the compound `COc1cccc(-n2ncc3c(N/N=C/c4ccc(C(=O)NCCN(C)C)cc4)ncnc32)c1`, the GI50 is 0.128 µM and the TGI worked out at 6.65 µM.

Another assay has as its system NCI-H460 lung. Briefly: NCI-60 cell line screen, 48 h.
With `O=C(N/C(=C\c1ccc2c(c1)OCO2)c1nc2ccccc2[nH]1)c1ccccc1`, the TGI is greater than 100 µM.
With `COc1ccc2sc3c(NCCCN(C)C)nc4ccccc4c3c(=O)c2c1`, the GI50 was 1.54 µM and the TGI came out at 3.03 µM.
Regarding `CSc1ccc(C2OC(=O)c3ccccc32)c2ccccc12` (stereo not given), the TGI was greater than 100 µM.
Take `C=CCOc1cccc(/C=C2\SC(=Nc3ccc(O)cc3)NC2=O)c1`: the GI50 was 0.389 µM and the TGI stood at 5.2 µM.
`COc1ccc(-c2c3c(N)nc(-c4ccncc4)nc3nc3c2c(C)nn3-c2ccccc2)cc1`: the GI50 was 3.3 µM and the TGI was greater than 100 µM.
`C#CCOCn1cnc2c(Cl)ncnc21` displayed a TGI greater than 100 µM.
`COc1cccc(-n2ncc3c(N/N=C/c4ccc(C(=O)NCCN(C)C)cc4)ncnc32)c1`: the GI50 is 3.23 µM and the TGI is 7.24 µM.

The next assay relates to NCI-H522 lung. Briefly: NCI-60 cell line screen, 48 h.
On to `O=C(N/C(=C\c1ccc2c(c1)OCO2)c1nc2ccccc2[nH]1)c1ccccc1`, for which the TGI was found to be 61 µM.
On to `COc1ccc2sc3c(NCCCN(C)C)nc4ccccc4c3c(=O)c2c1`, for which the GI50 was 1.78 µM and the TGI was 3.46 µM.
The compound `CSc1ccc(C2OC(=O)c3ccccc32)c2ccccc12` (stereo not given) gave a TGI greater than 100 µM.
`C=CCOc1cccc(/C=C2\SC(=Nc3ccc(O)cc3)NC2=O)c1`: the GI50 is 0.406 µM and the TGI turned out to be 2.98 µM.
The matching figures for `COc1ccc(-c2c3c(N)nc(-c4ccncc4)nc3nc3c2c(C)nn3-c2ccccc2)cc1`: 4.94 µM and 53.5 µM.
In turn, `C#CCOCn1cnc2c(Cl)ncnc21` returned a TGI greater than 100 µM.
`COc1cccc(-n2ncc3c(N/N=C/c4ccc(C(=O)NCCN(C)C)cc4)ncnc32)c1`: the GI50 is 2.04 µM and the TGI stood at 5.96 µM.

The test system of another assay is ACHN renal. Briefly: NCI-60 cell line screen, 48 h.
As for `O=C(N/C(=C\c1ccc2c(c1)OCO2)c1nc2ccccc2[nH]1)c1ccccc1`, the TGI is greater than 100 µM.
Consider `COc1ccc2sc3c(NCCCN(C)C)nc4ccccc4c3c(=O)c2c1`, for which the GI50 was 1.56 µM and the TGI was 2.9 µM.
`CSc1ccc(C2OC(=O)c3ccccc32)c2ccccc12` (stereo not given) registered a TGI greater than 100 µM.
Take `C=CCOc1cccc(/C=C2\SC(=Nc3ccc(O)cc3)NC2=O)c1`: the GI50 was 0.777 µM and the TGI came out at 13.7 µM.
With `COc1ccc(-c2c3c(N)nc(-c4ccncc4)nc3nc3c2c(C)nn3-c2ccccc2)cc1`, the GI50 was 4.58 µM and the TGI was greater than 100 µM.
Compound `C#CCOCn1cnc2c(Cl)ncnc21` registered a TGI greater than 100 µM.
With `COc1cccc(-n2ncc3c(N/N=C/c4ccc(C(=O)NCCN(C)C)cc4)ncnc32)c1`, the GI50 is 1.08 µM and the TGI was determined as 4.86 µM.

The test system of the next assay is COLO 205 colon. Briefly: NCI-60 cell line screen, 48 h.
`O=C(N/C(=C\c1ccc2c(c1)OCO2)c1nc2ccccc2[nH]1)c1ccccc1` displayed a TGI greater than 60.3 µM.
For the compound `COc1ccc2sc3c(NCCCN(C)C)nc4ccccc4c3c(=O)c2c1`, the GI50 was 1.58 µM and the TGI came out at 3.52 µM.
`CSc1ccc(C2OC(=O)c3ccccc32)c2ccccc12` (stereo not given): the TGI was greater than 100 µM.
Regarding `C=CCOc1cccc(/C=C2\SC(=Nc3ccc(O)cc3)NC2=O)c1`, the GI50 is 2.64 µM and the TGI stood at 11.1 µM.
In the case of `COc1ccc(-c2c3c(N)nc(-c4ccncc4)nc3nc3c2c(C)nn3-c2ccccc2)cc1`, the GI50 was 6.12 µM and the TGI is greater than 100 µM.
As to `C#CCOCn1cnc2c(Cl)ncnc21`, the TGI is greater than 100 µM.
For `COc1cccc(-n2ncc3c(N/N=C/c4ccc(C(=O)NCCN(C)C)cc4)ncnc32)c1`, the GI50 is 0.605 µM and the TGI stood at 3.2 µM.

Another assay relates to SNB-75 CNS. Briefly: NCI-60 cell line screen, 48 h.
Take `O=C(N/C(=C\c1ccc2c(c1)OCO2)c1nc2ccccc2[nH]1)c1ccccc1`: the TGI was greater than 74 µM.
In the case of `COc1ccc2sc3c(NCCCN(C)C)nc4ccccc4c3c(=O)c2c1`, the GI50 was 1.42 µM and the TGI came out at 2.8 µM.
Take `CSc1ccc(C2OC(=O)c3ccccc32)c2ccccc12` (stereo not given): the TGI was found to be 61.2 µM.
Consider `C=CCOc1cccc(/C=C2\SC(=Nc3ccc(O)cc3)NC2=O)c1`, for which the GI50 is 0.189 µM and the TGI stood at 0.668 µM.
In the case of `COc1ccc(-c2c3c(N)nc(-c4ccncc4)nc3nc3c2c(C)nn3-c2ccccc2)cc1`, the GI50 is 3.62 µM and the TGI worked out at 28.4 µM.
Consider `C#CCOCn1cnc2c(Cl)ncnc21`, for which the TGI was greater than 100 µM.
With `COc1cccc(-n2ncc3c(N/N=C/c4ccc(C(=O)NCCN(C)C)cc4)ncnc32)c1`, the GI50 was 1.05 µM and the TGI came out at 5.13 µM.

In a further assay the test system is UACC-257 melanoma. Briefly: NCI-60 cell line screen, 48 h.
Consider `O=C(N/C(=C\c1ccc2c(c1)OCO2)c1nc2ccccc2[nH]1)c1ccccc1`, for which the TGI was determined as 35.8 µM.
For `COc1ccc2sc3c(NCCCN(C)C)nc4ccccc4c3c(=O)c2c1`, the GI50 was 1.81 µM and the TGI worked out at 3.49 µM.
Turning to `CSc1ccc(C2OC(=O)c3ccccc32)c2ccccc12` (stereo not given), the TGI is greater than 100 µM.
For `C=CCOc1cccc(/C=C2\SC(=Nc3ccc(O)cc3)NC2=O)c1`, the GI50 was 9.11 µM and the TGI was greater than 100 µM.
The matching figures for `COc1ccc(-c2c3c(N)nc(-c4ccncc4)nc3nc3c2c(C)nn3-c2ccccc2)cc1`: 79.9 µM and greater than 100 µM.
For the compound `C#CCOCn1cnc2c(Cl)ncnc21`, the TGI was greater than 100 µM.
As to `COc1cccc(-n2ncc3c(N/N=C/c4ccc(C(=O)NCCN(C)C)cc4)ncnc32)c1`, the GI50 was 3.72 µM and the TGI was 7.44 µM.
